Assay results: patent US4018753A, “Polypeptides with ACTH-like activities” (Shionogi & Co., Ltd., priority 1974, dated 1977)
Square brackets hold non-standard residues; d marks the D form. Ends that are not written are not given here. Peptide text beside a SMILES is read from it. Aib = CC(C)(N)C(=O)O

What was measured:
rats = assay: Effect on adrenal growth and thymus involution; assay type: in vivo; parameters: key: *: The effects on adrenal growth and thymus involution are very weak; conditions: i.m. 20 μg and 100 μg/rat/day for 2 days
Experimental: The effect on adrenal growth and thymus involution was determined in the following manner: peptides were intramuscularly injected into rats at a dose of 20 μg and 100 μg/rat/day respectively for 2 days. The rats were then submitted to autopsy 24 hours after the last injection, and then the adrenal and thymus were weighed respectively.

melanocyte = assay: In vivo melanocyte-stimulating activity; conditions: relative potency
Experimental: The in vivo melanocyte-stimulating activity was determined according to the method described in Endocrinol. Japonica 19, 383 (1972).

hypophysectomized rat [1] = assay: Adrenal-stimulating activity by intramuscular administration to hypophysectomized rat; assay type: in vivo; conditions: relative potency; USP Corticotropin Reference Standard; injected into thigh muscle, blood sample 30 minutes after injection, 11-hydroxycorticosteroids
Experimental: (§1) Assays for adrenal-stimulating activity of the present polypeptides were carried out according to the different methods, comparing with that of native corticotropin (ACTH), [Gly^1 ]-ACTH(1-18)-NH2 [Bull.Chem.Soc.Japan 43 196 (1970)], [Aib^1 ]-ACTH(1-18)-NH2 [ibid., 43, 3873 (1970)], [Aib^1,Lys^17,18 ]-ACTH(1-18)-NH2, Cortrosyn^R (N.V.Organon, Netherland) and Cortrosyn-Z (N.V.Organon, Netherland). The adrenal-stimulating activity by the intravenous administration to hypophysectomized rat was determined in such a manner that a peptide preparation was injected into the femoral vein and a blood sample was collected from the abdominal aorta 30 minutes after the injection. The adrenal-stimulating activity by the intramuscular administration to hypophysectomized rat was also determined, where a peptide preparation was injected into the thigh muscle and a blood sample was collected from the abdominal aorta 30 minutes after injection. Throughout the experiment, the USP Corticotropin Reference Standard was used as a standard and the production of 11-hydroxycorticosteroids was determined by the fluorophotometric method of Peterson [J.Biol. Chem. 225 25 (1957)]. For each assay method several determinations were usually performed and the data obtained independently were submitted to the statistical treatment by Sheps and Moore procedure [J.Pharmacol. Extl. Therap. 128, 99 (1960)].

hypophysectomized rat [2] = assay: Adrenal-stimulating activity by intravenous administration to hypophysectomized rat; assay type: in vivo; conditions: relative potency; USP Corticotropin Reference Standard; injected into femoral vein, blood sample 30 minutes after injection, 11-hydroxycorticosteroids
Experimental: as §1

[3] = relative potency, autopsy 24 hours after last injection, adrenal and thymus weighed

Compound | effect on adrenal growth and thymus involution a) (rats; [3]) | Melanocyte-stimulating activity b) in vivo (melanocyte) | Adrenal-stimulating activity i.m. (hypophysectomized rat [1]) | Adrenal-stimulating activity i.v. (hypophysectomized rat [2]) | effect on adrenal growth and thymus involution a) (rats; symbol * in the table)
CSCC[C@H](NC(=O)[C@H](CO)NC(=O)[C@H](Cc1ccc(O)cc1)NC(=O)C(C)(C)N)C(=O)N[C@@H](CCC(=O)O)C(=O)N[C@@H](Cc1c[nH]cn1)C(=O)N[C@@H](Cc1ccccc1)C(=O)N[C@@H](CCCNC(=N)N)C(=O)N[C@@H](Cc1c[nH]c2ccccc12)C(=O)NCC(=O)N[C@@H](CCCCN)C(=O)N1CCC[C@H]1C(=O)N[C@H](C(=O)NCC(=O)N[C@@H](CCCCN)C(=O)N[C@@H](CCCCN)C(=O)N[C@@H](CCCCN)C(=O)N[C@@H](CCCCN)C(N)=O)C(C)C [[Aib^1,Lys^17,18]ACTH(1-18)NH2, [Aib^1,Lys^17,18]-ACTH(1-18)-NH2] (H-[Aib]YSMEHFRWGKPVGKKKK-NH2) | 0.40 | 0.82 | 9.4 | 9.3 | 
CSCC[C@H](NC(=O)[C@H](CO)NC(=O)[C@H](Cc1ccc(O)cc1)NC(=O)C(C)(C)N)C(=O)N[C@@H](CCC(=O)O)C(=O)N[C@@H](Cc1c[nH]cn1)C(=O)N[C@@H](Cc1ccccc1)C(=O)N[C@@H](CCCNC(=N)N)C(=O)N[C@@H](Cc1c[nH]c2ccccc12)C(=O)NCC(=O)N[C@@H](CCCCN)C(=O)N1CCC[C@H]1C(=O)N[C@H](C(=O)NCC(=O)N[C@@H](CCCCN)C(=O)N[C@@H](CCCCN)C(=O)N[C@@H](CCCNC(=N)N)C(=O)N[C@@H](CCCNC(=N)N)C(N)=O)C(C)C [[Aib^1]ACTH(1-18)NH2, [Aib^1]-ACTH(1-18)-NH2] (H-[Aib]YSMEHFRWGKPVGKKRR-NH2) | 0.12 | 1.00 | 9.9 | 4.1 | 
GYSMEHFRWGKPVGKKRR-NH2 [[Gly^1]ACTH(1-18)NH2, [Gly^1]-ACTH(1-18)-NH2] | very weak | 0.11 | 1.0 | 1.0 | *
Native ACTH: native corticotropin (ACTH) (SYSMEHFRWGKPVGKKRRPVKVYPNGAEDESAEAFPLEF; Corticotropin; UniProt P01189 138-176, looked up) | very weak |  | 4.0 | 1.0 | *
